{"source": "ChEMBL document CHEMBL3272271", "about": "“Folate antagonists. 13. 2,4-Diamino-6-](alpha,alpha,alpha-trifluoro-m-tolyl)thio]quinazoline and related 2,4-diamino-6-[(phenyl- and naphthyl)thio]quinazolines, a unique class of antimetabolites with extraordinary antimalarial and antibacterial effects” (J Med Chem, 1978)", "key": {"Plasmodium gallinaceum [1]": {"tested_on": "Plasmodium gallinaceum", "assay": "Antimalarial activity against sporozoite-induced Plasmodium gallinaceum infected in white leghorn chicken assessed as increase in mean survival days of host at 60 mg/kg, sc administered 72 hrs after infection relative to control", "format": "functional", "details": "route subcutaneous"}, "Plasmodium gallinaceum [2]": {"tested_on": "Plasmodium gallinaceum", "assay": "Antimalarial activity against trophozoite-induced Plasmodium gallinaceum infected in white leghorn chicken assessed as disease cure from parasite infection at 120 mg/kg, sc administered 72 hrs after infection", "format": "functional, organism-based", "set-up": "dose 120 mg/kg"}, "Plasmodium berghei [3]": {"tested_on": "Plasmodium berghei", "assay": "Antimalarial activity against Plasmodium berghei infected in mouse assessed as increase in mean survival days of host at 40 mg/kg, sc administered 72 hrs after infection relative to control", "format": "functional", "details": "route subcutaneous"}, "Plasmodium gallinaceum [4]": {"tested_on": "Plasmodium gallinaceum", "assay": "Antimalarial activity against trophozoite-induced Plasmodium gallinaceum infected in white leghorn chicken assessed as disease cure from parasite infection at 60 mg/kg, sc administered 72 hrs after infection", "format": "functional, organism-based", "set-up": "dose 60 mg/kg"}, "Plasmodium berghei [5]": {"tested_on": "Plasmodium berghei", "assay": "Antimalarial activity against Plasmodium berghei infected in mouse assessed as increase in mean survival days of host at 20 mg/kg, sc administered 72 hrs after infection relative to control", "format": "functional", "details": "route subcutaneous"}, "Gallus gallus [6]": {"tested_on": "Gallus gallus", "assay": "Toxicity in sporozoite-induced Plasmodium gallinaceum infected white leghorn chicken assessed as mortality at 120 mg/kg, sc administered 72 hrs after infection measured up to 6 days", "format": "organism-based", "set-up": "dose 120 mg/kg, route subcutaneous", "details": "in vivo"}, "Plasmodium gallinaceum [7]": {"tested_on": "Plasmodium gallinaceum", "assay": "Antimalarial activity against sporozoite-induced Plasmodium gallinaceum infected in white leghorn chicken assessed as increase in mean survival days of host at 30 mg/kg, sc administered 72 hrs after infection relative to control", "format": "functional", "details": "route subcutaneous"}, "Gallus gallus [8]": {"tested_on": "Gallus gallus", "assay": "Toxicity in sporozoite-induced Plasmodium gallinaceum infected white leghorn chicken assessed as mortality at 480 mg/kg, sc administered 72 hrs after infection measured up to 6 days", "format": "organism-based", "set-up": "dose 480 mg/kg, route subcutaneous", "details": "in vivo"}, "Plasmodium berghei [9]": {"tested_on": "Plasmodium berghei", "assay": "Antimalarial activity against Plasmodium berghei infected in mouse assessed as disease cure from parasite infection at 320 mg/kg, sc administered 72 hrs after infection", "format": "functional, organism-based", "set-up": "dose 320 mg/kg"}, "Plasmodium gallinaceum [10]": {"tested_on": "Plasmodium gallinaceum", "assay": "Antimalarial activity against trophozoite-induced Plasmodium gallinaceum infected in white leghorn chicken assessed as disease cure from parasite infection at 30 mg/kg, sc administered 72 hrs after infection", "format": "functional, organism-based", "set-up": "dose 30 mg/kg"}, "Plasmodium berghei [11]": {"tested_on": "Plasmodium berghei", "assay": "Antimalarial activity against Plasmodium berghei infected in mouse assessed as increase in mean survival days of host at 80 mg/kg, sc administered 72 hrs after infection relative to control", "format": "functional", "details": "route subcutaneous"}, "Plasmodium berghei [12]": {"tested_on": "Plasmodium berghei", "assay": "Antimalarial activity against DDS-resistant Plasmodium berghei assessed as drug resistance relative to control", "format": "functional"}, "Plasmodium berghei [13]": {"tested_on": "Plasmodium berghei", "assay": "Antimalarial activity against Plasmodium berghei infected in mouse assessed as disease cure from parasite infection at 160 mg/kg, sc administered 72 hrs after infection", "format": "functional, organism-based", "set-up": "dose 160 mg/kg"}, "Plasmodium berghei [14]": {"tested_on": "Plasmodium berghei", "assay": "Antimalarial activity against trophozoite-induced Plasmodium berghei infected in mouse assessed as daily dose required to suppression of 90% parasite infection administered with diet for 6 days", "format": "functional"}, "Mus musculus [15]": {"tested_on": "Mus musculus", "assay": "Toxicity in Plasmodium berghei infected mouse assessed as mortality at 320 mg/kg, sc administered 72 hrs after infection measured after 2 to 5 days", "format": "organism-based", "set-up": "dose 320 mg/kg, route subcutaneous", "details": "in vivo"}, "Plasmodium berghei [16]": {"tested_on": "Plasmodium berghei", "assay": "Ratio of quinine hydrochloride SD90 to compound SD90 for trophozoite-induced Plasmodium berghei infected in mouse assessed as daily dose required to suppression of 90% parasite infection administered with diet for 6 days", "format": "functional"}, "Mus musculus [17]": {"tested_on": "Mus musculus", "assay": "Toxicity in Plasmodium berghei infected mouse assessed as mortality at 640 mg/kg, sc administered 72 hrs after infection measured after 2 to 5 days", "format": "organism-based", "set-up": "dose 640 mg/kg, route subcutaneous", "details": "in vivo"}, "Gallus gallus [18]": {"tested_on": "Gallus gallus", "assay": "Toxicity in sporozoite-induced Plasmodium gallinaceum infected white leghorn chicken assessed as mortality at 240 mg/kg, sc administered 72 hrs after infection measured up to 6 days", "format": "organism-based", "set-up": "dose 240 mg/kg, route subcutaneous", "details": "in vivo"}, "Gallus gallus [19]": {"tested_on": "Gallus gallus", "assay": "Toxicity in sporozoite-induced Plasmodium gallinaceum infected white leghorn chicken assessed as mortality at 60 mg/kg, sc administered 72 hrs after infection measured up to 6 days", "format": "organism-based", "set-up": "dose 60 mg/kg, route subcutaneous", "details": "in vivo"}, "Plasmodium gallinaceum [20]": {"tested_on": "Plasmodium gallinaceum", "assay": "Antimalarial activity against trophozoite-induced Plasmodium gallinaceum infected in white leghorn chicken assessed as disease cure from parasite infection at 160 mg/kg, sc administered 72 hrs after infection", "format": "functional, organism-based", "set-up": "dose 160 mg/kg"}, "Plasmodium berghei [21]": {"tested_on": "Plasmodium berghei", "assay": "Antimalarial activity against Plasmodium berghei infected in mouse assessed as disease cure from parasite infection at 80 mg/kg, sc administered 72 hrs after infection", "format": "functional, organism-based", "set-up": "dose 80 mg/kg"}, "Plasmodium gallinaceum [22]": {"tested_on": "Plasmodium gallinaceum", "assay": "Antimalarial activity against trophozoite-induced Plasmodium gallinaceum infected in white leghorn chicken assessed as increase in mean survival days of host at 30 mg/kg, sc administered 72 hrs after infection relative to control", "format": "functional", "details": "route subcutaneous"}, "Plasmodium berghei [23]": {"tested_on": "Plasmodium berghei", "assay": "Antimalarial activity against Plasmodium berghei infected in mouse assessed as increase in mean survival days of host at 10 mg/kg, sc administered 72 hrs after infection relative to control", "format": "functional", "details": "route subcutaneous"}, "Plasmodium gallinaceum [24]": {"tested_on": "Plasmodium gallinaceum", "assay": "Antimalarial activity against trophozoite-induced Plasmodium gallinaceum infected in white leghorn chicken assessed as increase in mean survival days of host at 60 mg/kg, sc administered 72 hrs after infection relative to control", "format": "functional", "details": "route subcutaneous"}, "Plasmodium gallinaceum [25]": {"tested_on": "Plasmodium gallinaceum", "assay": "Antimalarial activity against sporozoite-induced Plasmodium gallinaceum infected in white leghorn chicken assessed as increase in mean survival days of host at 15 mg/kg, sc administered 72 hrs after infection relative to control", "format": "functional", "details": "route subcutaneous"}, "Plasmodium berghei [26]": {"tested_on": "Plasmodium berghei", "assay": "Antimalarial activity against Plasmodium berghei infected in mouse assessed as disease cure from parasite infection at 40 mg/kg, sc administered 72 hrs after infection", "format": "functional, organism-based", "set-up": "dose 40 mg/kg"}, "Gallus gallus [27]": {"tested_on": "Gallus gallus", "assay": "Toxicity in trophozoite-induced Plasmodium gallinaceum infected white leghorn chicken assessed as mortality at 120 mg/kg, sc administered 72 hrs after infection measured after 48 hrs", "format": "organism-based", "set-up": "dose 120 mg/kg, route subcutaneous", "details": "in vivo"}}, "note": "Activity calls are given as the source filed them. The rule behind the calls is not given here.", "data": [{"smiles": "CC1(C)N=C(N)N=C(N)N1c1ccc(Cl)cc1.Cl", "note": "[CHLORCYCLOGUANIL HYDROCHLORIDE]", "values": [{"measurement": "MST", "setting": "Plasmodium gallinaceum [1]", "value": 0, "unit": "days"}, {"measurement": "Activity", "setting": "Plasmodium gallinaceum [2]", "value": "Active"}, {"measurement": "MST", "setting": "Plasmodium berghei [3]", "value": 13.4, "unit": "days"}, {"measurement": "Activity", "setting": "Plasmodium gallinaceum [4]", "value": "Active"}, {"measurement": "MST", "setting": "Plasmodium berghei [5]", "value": 7.9, "unit": "days"}, {"measurement": "Activity", "setting": "Gallus gallus [6]", "value": "Toxic"}, {"measurement": "MST", "setting": "Plasmodium gallinaceum [7]", "value": 2.3, "unit": "days"}, {"measurement": "Activity", "setting": "Gallus gallus [8]", "value": "Toxic"}, {"measurement": "Activity", "setting": "Plasmodium berghei [9]", "value": "Active"}, {"measurement": "Activity", "setting": "Plasmodium gallinaceum [10]", "value": "Active"}, {"measurement": "MST", "setting": "Plasmodium berghei [11]", "value": 21.6, "unit": "days"}, {"measurement": "fold change (FC)", "setting": "Plasmodium berghei [12]", "value": "<2"}, {"measurement": "Activity", "setting": "Plasmodium berghei [13]", "value": "Active"}, {"measurement": "SD90", "setting": "Plasmodium berghei [14]", "value": 2.1, "unit": "mg/kg/day"}, {"measurement": "Activity", "setting": "Mus musculus [15]", "value": "Toxic"}, {"measurement": "Ratio", "setting": "Plasmodium berghei [16]", "value": 35}, {"measurement": "Activity", "setting": "Mus musculus [17]", "value": "Toxic"}, {"measurement": "Activity", "setting": "Gallus gallus [18]", "value": "Toxic"}, {"measurement": "Activity", "setting": "Gallus gallus [19]", "value": "Toxic"}, {"measurement": "Activity", "setting": "Plasmodium gallinaceum [20]", "value": "Active"}, {"measurement": "Activity", "setting": "Plasmodium berghei [21]", "value": "Active"}, {"measurement": "MST", "setting": "Plasmodium gallinaceum [22]", "value": 11.7, "unit": "days"}, {"measurement": "MST", "setting": "Plasmodium berghei [23]", "value": 4.9, "unit": "days"}, {"measurement": "MST", "setting": "Plasmodium gallinaceum [24]", "value": 15.1, "unit": "days"}, {"measurement": "MST", "setting": "Plasmodium gallinaceum [25]", "value": 0, "unit": "days"}, {"measurement": "Activity", "setting": "Plasmodium berghei [26]", "value": "Active"}, {"measurement": "Activity", "setting": "Gallus gallus [27]", "value": "Toxic"}]}]}
